Measured values reported in patent US9255295B2, “Method for evaluating the sensitizing potential of a test compound” (IMMUNOSEARCH, priority 2010, dated 2016).

Tested on: genes specific for sensitization (BRAK, CTSS, DAPK2, FABP4, HSP27, IL18, HSP90, IL1R2, TPSAB1, CXCR1, DEFB1, DHFR, EHF, IVL, KRT4, MELANA, NGAL, PDZK1IP1, PI3 …)
Assay: Expression of the other (non-ARE) sensitization-specific genes in EPISKIN reconstructed skin (quantitative RT-PCR)
Assay type: cell-based, human
Conditions: for MELANA expression / PDZK1iP1 expression / SERPINB3 expression / BRAK expression / DHFR expression / HSP90 expression / IL18 expression / KRT4 expression: compared to the control

Question: Which results are given for O=CC=O [Glyoxal]?
Answer: MELANA expression (1%): 1.1; PDZK1iP1 expression (1%): 1.0; SERPINB3 expression (1%): 1.1; BRAK NUMBER OF GENES grade (10%): 0 (if this expression is lower, the grade is 0); CTSS expression compared to control (10%): 2.2; CTSS grade (NUMBER OF GENES) (10%): 1 (If the expression is greater than 1.3 compared to the control, a grade of 11s given); CXCR1 expression compared to control (10%): 1.8; CXCR1 grade (NUMBER OF GENES) (10%): 1 (If the expression is greater than 1.3 compared to the control, a grade of 11s given); DAPK2 expression compared to control (10%): 0.9; DAPK2 grade (NUMBER OF GENES) (10%): 0 (if this expression is lower, the grade is 0); DEFB1 expression compared to control (10%): 1.6; DEFB1 grade (NUMBER OF GENES) (10%): 1 (If the expression is greater than 1.3 compared to the control, a grade of 11s given); DHFR NUMBER OF GENES grade (10%): 0 (if this expression is lower, the grade is 0); EHF expression compared to control (10%): 0.9; EHF grade (NUMBER OF GENES) (10%): 0 (if this expression is lower, the grade is 0); FABP4 expression compared to control (10%): 0.8; FABP4 grade (NUMBER OF GENES) (10%): 0 (if this expression is lower, the grade is 0); HSP27 expression compared to control (10%): 0.8; HSP27 grade (NUMBER OF GENES) (10%): 0 (if this expression is lower, the grade is 0); HSP90 NUMBER OF GENES grade (10%): 1 (If the expression is greater than 1.3 compared to the control, a grade of 11s given); IL18 NUMBER OF GENES grade (10%): 1 (If the expression is greater than 1.3 compared to the control, a grade of 11s given); IVL expression compared to control (10%): 1.6; IVL grade (NUMBER OF GENES) (10%): 1 (If the expression is greater than 1.3 compared to the control, a grade of 11s given); KRT4 NUMBER OF GENES grade (10%): 1 (If the expression is greater than 1.3 compared to the control, a grade of 11s given); MELANA NUMBER OF GENES grade (10%): 0 (if this expression is lower, the grade is 0); NGAL expression compared to control (10%): 1.3; NGAL grade (NUMBER OF GENES) (10%): 1 (If the expression is greater than 1.3 compared to the control, a grade of 11s given); P13 expression compared to control (10%): 1.3; P13 grade (NUMBER OF GENES) (10%): 1 (If the expression is greater than 1.3 compared to the control, a grade of 11s given); PDZK1iP1 NUMBER OF GENES grade (10%): 1 (If the expression is greater than 1.3 compared to the control, a grade of 11s given); SENS >1.3 (number of genes) (10%): 13; SERPINB3 NUMBER OF GENES grade (10%): 1 (If the expression is greater than 1.3 compared to the control, a grade of 11s given); TOTAL SENS (number of genes) (10%): 13; BRAK expression (10%): 0.5; DHFR expression (10%): 0.9; HSP90 expression (10%): 1.5; IL18 expression (10%): 1.3; KRT4 expression (10%): 1.4; MELANA expression (10%): 1.1; PDZK1iP1 expression (10%): 1.4; SERPINB3 expression (10%): 1.3; BRAK NUMBER OF GENES grade (50%): 0 (if this expression is lower, the grade is 0); CTSS expression compared to control (50%): 2.7; CTSS grade (NUMBER OF GENES) (50%): 1 (If the expression is greater than 1.3 compared to the control, a grade of 11s given); CXCR1 expression compared to control (50%): 2.7; CXCR1 grade (NUMBER OF GENES) (50%): 1 (If the expression is greater than 1.3 compared to the control, a grade of 11s given); DAPK2 expression compared to control (50%): 0.9; DAPK2 grade (NUMBER OF GENES) (50%): 0 (if this expression is lower, the grade is 0); DEFB1 expression compared to control (50%): 1.6; DEFB1 grade (NUMBER OF GENES) (50%): 1 (If the expression is greater than 1.3 compared to the control, a grade of 11s given); DHFR NUMBER OF GENES grade (50%): 0 (if this expression is lower, the grade is 0); EHF expression compared to control (50%): 0.9; EHF grade (NUMBER OF GENES) (50%): 0 (if this expression is lower, the grade is 0); FABP4 expression compared to control (50%): 0.8; FABP4 grade (NUMBER OF GENES) (50%): 0 (if this expression is lower, the grade is 0); HSP27 expression compared to control (50%): 0.8; HSP27 grade (NUMBER OF GENES) (50%): 0 (if this expression is lower, the grade is 0); HSP90 NUMBER OF GENES grade (50%): 1 (If the expression is greater than 1.3 compared to the control, a grade of 11s given); IL18 NUMBER OF GENES grade (50%): 0 (if this expression is lower, the grade is 0); IVL expression compared to control (50%): 1.5; IVL grade (NUMBER OF GENES) (50%): 1 (If the expression is greater than 1.3 compared to the control, a grade of 11s given); KRT4 NUMBER OF GENES grade (50%): 0 (if this expression is lower, the grade is 0); MELANA NUMBER OF GENES grade (50%): 0 (if this expression is lower, the grade is 0); NGAL expression compared to control (50%): 0.6; NGAL grade (NUMBER OF GENES) (50%): 0 (if this expression is lower, the grade is 0); P13 expression compared to control (50%): 1.4; P13 grade (NUMBER OF GENES) (50%): 1 (If the expression is greater than 1.3 compared to the control, a grade of 11s given); PDZK1iP1 NUMBER OF GENES grade (50%): 0 (if this expression is lower, the grade is 0); SENS >1.3 (number of genes) (50%): 8; SERPINB3 NUMBER OF GENES grade (50%): 1 (If the expression is greater than 1.3 compared to the control, a grade of 11s given); TOTAL SENS (number of genes) (50%): 8; BRAK expression (50%): 0.5; DHFR expression (50%): 0.9; HSP90 expression (50%): 2.0; IL18 expression (50%): 1.0; KRT4 expression (50%): 0.6; MELANA expression (50%): 1.1; PDZK1iP1 expression (50%): 1.0; SERPINB3 expression (50%): 1.7
